Among the data in patent US9890138B2, “Diaminopyrimidine derivatives and processes for the preparation thereof” (YUHAN CORPORATION, priority 2011, dated 2018) are EC50 values, retold here.

The structures appear in SMILES notation. Where a name gives a salt, the structure may show the parent alone.

T1 sequence (Q13639 1-387 isoform Q13639-2): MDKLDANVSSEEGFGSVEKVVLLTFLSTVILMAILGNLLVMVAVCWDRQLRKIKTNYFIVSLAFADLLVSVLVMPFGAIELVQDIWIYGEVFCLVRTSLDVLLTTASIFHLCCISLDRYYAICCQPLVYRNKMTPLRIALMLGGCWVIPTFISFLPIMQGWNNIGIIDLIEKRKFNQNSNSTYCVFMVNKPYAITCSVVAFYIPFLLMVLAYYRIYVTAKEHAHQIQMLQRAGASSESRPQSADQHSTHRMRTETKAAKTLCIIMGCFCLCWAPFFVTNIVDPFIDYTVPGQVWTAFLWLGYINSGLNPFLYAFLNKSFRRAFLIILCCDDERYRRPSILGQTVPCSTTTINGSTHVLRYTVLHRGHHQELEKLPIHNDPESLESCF

The assay has as its target T1, human 5-HT4(a) (Homo sapiens, UniProt Q13639).
T1 construct: host or cells: GeneBlAzer HTR4-CRE-bla CHO-K1 cells
The experiment in a line: Evaluation of agonistic activity in CHO-K1 cells expressing human 5-HT4(a) (GeneBlAzer HTR4-CRE-bla CHO-K1, beta-lactamase reporter). The format is cell-based. As to conditions: CHO-K1 cells stably expressing human 5-HT4(a). An outline of the steps:
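Agonism read as CRE-driven β-lactamase activity: emission ratio 465/535 nm (excitation 410 nm) after 2 h substrate loading. Preceded by 5 h compound treatment, 8 concentrations, 1% DMSO in the added solution, of overnight-plated reporter CHO-K1 cells; EC50 by non-linear regression.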
Turning to `CCCc1cc(N2CCC[C@H]2C)nc(Nc2ccc3c(C)cc(=O)oc3c2)n1` [Example 317], the EC50 (as a rule, the concentration that produces a half-maximal response) came out at 0.14 nM. The figure for `CCCc1cc(N2CCC[C@H]2C)nc(Nc2ccc(C)c(Cl)c2)n1` [Example 318] is 0.16 nM; for `CCCc1cc(N2CCC[C@H]2C)nc(Nc2cccc([N+](=O)[O-])c2)n1` [Example 319] it is 0.08 nM. The figure for `CCCc1cc(N2CCC[C@H]2C)nc(Nc2ccc(F)c([N+](=O)[O-])c2)n1` [Example 320, (R)—N-(4-fluoro-3-nitrophenyl)-4-(2-methylpyrrolidin-1-yl)-6-propylpyrimidin-2-amine] is 0.041 nM; for `CCCc1cc(N2CCC[C@H]2C)nc(Nc2ccc(C)c([N+](=O)[O-])c2)n1` [Example 321, (R)—N-(4-methyl-3-nitrophenyl)-4-(2-methylpyrrolidin-1-yl)-6-propylpyrimidin-2-amine] it is 0.044 nM; for `CCCc1cc(N2CCC[C@H]2C)nc(Nc2ccc(F)c(C(F)(F)F)c2)n1` [Example 322] it is 0.15 nM. Compound `CCCc1cc(N2CCC[C@H]2C)nc(Nc2ccc(N)c(C(F)(F)F)c2)n1` [Example 323, (R)—N^1-[4-(2-methylpyrrolidin-1-yl)-6-propylpyrimidin-2-yl]-3-(trifluoromethyl)benzene-1,4-diamine] displayed an EC50 of 0.027 nM. Regarding `CCCc1cc(N2CCC[C@H]2C)nc(Nc2ccc(F)c(C#N)c2)n1` [Example 325], the 50% effective concentration (EC50) worked out at 0.085 nM.

In the case of `CCCc1cc(N2CCC[C@H]2C)nc(Nc2ccc(C)c(C#N)c2)n1` [Example 326], the midpoint of the response, the EC50, lay at 0.028 nM.

Compound `CCCc1cc(N2CCC[C@H]2C)nc(Nc2ccc(N)c(C#N)c2)n1` [Example 327] registered an EC50 of 0.025 nM. The EC50 values of the last two compounds are within 1.5-fold of each other.

As for `CCCc1cc(N2CCC[C@H]2C)nc(Nc2ccc(N)c([N+](=O)[O-])c2)n1` [Example 328, (R)—N^1-[4-(2-methylpyrrolidin-1-yl)-6-propylpyrimidin-2-yl]-3-nitrobenzene-1,4-diamine], the response was half-maximal at 0.017 nM (EC50). The figure for `CCCc1cc(N2CCC[C@H]2C)nc(Nc2ccc3c(c2)N(C(C)=O)CC3)n1` [Example 329] is 0.18 nM. The figure for `CCCc1cc(N2CCC[C@H]2C)nc(Nc2ccc(OC)c(N)c2)n1` [Example 331] is 0.138 nM. Regarding `CCCc1cc(N2CCC[C@H]2C)nc(Nc2ccc(Cl)c(N)c2)n1` [Example 332], a half-maximal effect (EC50) was put at 0.046 nM. This EC50 is about 3-fold lower than that of the compound before.

For `CCCc1cc(N2CCC[C@H]2C)nc(Nc2ccc(F)c(N)c2)n1` [Example 333], the EC50 came to 0.024 nM. The figure for `CCCc1cc(N2CCC[C@H]2C)nc(Nc2ccc(C)c(N)c2)n1` [Example 334] is 0.085 nM; for `CCCCc1cc(N2CC[C@H](NC(C)=O)C2)nc(Nc2ccc(N)c([N+](=O)[O-])c2)n1` [Example 337] it is 0.0026 nM.

On to `CCCCc1cc(N2CC[C@H](NC)C2)nc(Nc2ccc(N)c([N+](=O)[O-])c2)n1` [Example 338], for which the EC50 is 0.0032 nM. `CCCc1cc(N2CC[C@H](N)C2)nc(Nc2cc(N)cc(C(F)(F)F)c2)n1` [Example 342] registered an EC50 of 0.0055 nM. `CCCc1cc(N2CC[C@H](N)C2)nc(Nc2ccc(Cl)c([N+](=O)[O-])c2)n1` [Example 344, (S)-4-(3-aminopyrrolidin-1-yl)-N-(4-chloro-3-nitrophenyl)-6-propylpyrimidin-2-amine dihydrochloride]: the EC50 was 0.0092 nM. Against the preceding compound, the EC50 is about 1.7-fold higher. For `CCCc1cc(N2CC[C@H](N)C2)nc(Nc2cccc(SC)c2)n1` [Example 345, (S)-4-(3-aminopyrrolidin-1-yl)-N-[3-(methylthio)phenyl]-6-propylpyrimidin-2-amine dihydrochloride], the EC50 amounted to 0.062 nM. The figure for `CCCc1cc(N2CC[C@H](N)C2)nc(Nc2ccc3cc[nH]c3c2)n1` [Example 346] is 0.014 nM; for `CCCc1cc(N2CC[C@H](N)C2)nc(Nc2cccc(C(F)(F)F)c2)n1` [Example 347, (S)-4-(3-aminopyrrolidin-1-yl)-6-propyl-N-[3-(trifluoromethyl)phenyl]pyrimidin-2-amine dihydrochloride] it is 0.03 nM; for `CCCc1cc(N2CC[C@H](N)C2)nc(Nc2cc(Cl)ccc2C)n1` [Example 348, (S)-4-(3-aminopyrrolidin-1-yl)-N-(5-chloro-2-methylphenyl)-6-propylpyrimidin-2-amine dihydrochloride] it is 0.019 nM. The figure for `CCCc1cc(N2CC[C@H](N)C2)nc(Nc2ccc(C)c(Cl)c2)n1` [Example 349, (S)-4-(3-aminopyrrolidin-1-yl)-N-(3-chloro-4-methylphenyl)-6-propylpyrimidin-2-amine dihydrochloride] is 0.016 nM; for `CCCc1cc(N2CC[C@H](N)C2)nc(Nc2cccc([N+](=O)[O-])c2)n1` [Example 350, (S)-4-(3-aminopyrrolidin-1-yl)-N-(3-nitrophenyl)-6-propylpyrimidin-2-amine dihydrochloride] it is 0.012 nM.

Regarding `CCCc1cc(N2CC[C@H](N)C2)nc(Nc2ccc(C)c([N+](=O)[O-])c2)n1` [Example 351, (S)-4-(3-aminopyrrolidin-1-yl)-N-(4-methyl-3-nitrophenyl)-6-propylpyrimidin-2-amine dihydrochloride], it took 0.0035 nM to reach a half-maximal effect (EC50). As for `CCCc1cc(N2CC[C@H](N)C2)nc(Nc2ccc(N)c(C(F)(F)F)c2)n1` [Example 352], the EC50 was 0.0027 nM. The EC50 values of the last two compounds are within 1.5-fold of each other.

The compound `CCCc1cc(N2CC[C@H](N)C2)nc(Nc2ccc(F)c(C#N)c2)n1` [Example 353, (S)-5-[4-(3-aminopyrrolidin-1-yl)-6-propylpyrimidin-2-ylamino]-2-fluorobenzonitrile dihydrochloride] returned an EC50 of 0.01 nM. This EC50 lies about 3.7-fold higher than the previous one. The figure for `CCCc1cc(N2CC[C@H](N)C2)nc(Nc2ccc(C)c(C#N)c2)n1` [Example 354, (S)-5-[4-(3-aminopyrrolidin-1-yl)-6-propylpyrimidin-2-ylamino]-2-methylbenzonitrile dihydrochloride] is 0.003 nM; for `CCCc1cc(N2CC[C@H](N)C2)nc(Nc2ccc(N)c(C#N)c2)n1` [Example 355] it is 0.007 nM; for `CCCc1cc(N2CC[C@H](N)C2)nc(Nc2ccc(F)c(C(F)(F)F)c2)n1` [Example 357, (S)-4-(3-aminopyrrolidin-1-yl)-N-[4-fluoro-3-(trifluoromethyl)phenyl]-6-propylpyrimidin-2-amine dihydrochloride] it is 0.0065 nM. The figure for `CCCc1cc(N2CC[C@H](N)C2)nc(Nc2ccc(F)c([N+](=O)[O-])c2)n1` [Example 358, (S)-4-(3-aminopyrrolidin-1-yl)-N-(4-fluoro-3-nitrophenyl)-6-propylpyrimidin-2-amine dihydrochloride] is 0.014 nM; for `CCCc1cc(N2CC[C@H](N)C2)nc(Nc2ccc(N)c([N+](=O)[O-])c2)n1` [Example 359] it is 0.0021 nM; for `CCCc1cc(N2CCC[C@H]2COC)nc(Nc2cccc(N)c2)n1` [Example 364] it is 0.122 nM. The figure for `CCCc1cc(N2CCC[C@H]2COC)nc(Nc2ccc(F)c(N)c2)n1` [Example 365] is 0.027 nM; for `CCCc1cc(N2CCC[C@H]2COC)nc(Nc2ccc(C)c(N)c2)n1` [Example 366] it is 0.078 nM.

In the case of `CCCc1cc(N2CCC[C@H]2COC)nc(Nc2ccc(OC)c(N)c2)n1` [Example 367, (S)-4-methoxy-N^1-{4-[2-(methoxymethyl)pyrrolidin-1-yl]-6-propylpyrimidin-2-yl}benzene-1,3-diamine], the midpoint of the response, the EC50, lay at 0.153 nM. The compound `CCCc1cc(N2CCC[C@H]2COC)nc(Nc2ccc3c(c2)NCC3)n1` [Example 368] returned a half-maximal effective concentration (EC50) of 0.182 nM. As for `CCCc1cc(N2CC[C@H](N)C2)nc(Nc2ccc(C)c(N)c2)n1` [Example 369], the EC50 was determined as 0.049 nM. Compared with the last compound, the EC50 is about 3.7-fold lower. The figure for `CCCc1cc(N2CC[C@H](N)C2)nc(Nc2ccc(F)c(N)c2)n1` [Example 370, (S)—N^1-[4-(3-aminopyrrolidin-1-yl)-6-propylpyrimidin-2-yl]-4-fluorobenzene-1,3-diamine dihydrochloride] is 0.015 nM; for `CCCc1cc(N2CC[C@H](NCC3CC3)C2)nc(Nc2ccc(Cl)c([N+](=O)[O-])c2)n1` [Example 372] it is 0.0046 nM. Compound `CCCc1cc(N2CC[C@H](NCC3CC3)C2)nc(Nc2ccc(F)c([N+](=O)[O-])c2)n1` [Example 373] gave an EC50 of 0.0043 nM. The figure for `CCCc1cc(N2CC[C@H](NCC3CC3)C2)nc(Nc2ccc(C)c([N+](=O)[O-])c2)n1` [Example 374, (S)-4-[3-(cyclopropylmethylamino)pyrrolidin-1-yl]-N-(4-methyl-3-nitrophenyl)-6-propylpyrimidin-2-amine] is 0.0027 nM; for `CCCc1cc(N2CC[C@H](NCC3CC3)C2)nc(Nc2cccc([N+](=O)[O-])c2)n1` [Example 375, (S)-4-[3-(cyclopropylmethylamino)pyrrolidin-1-yl]-N-(3-nitrophenyl)-6-propylpyrimidin-2-amine] it is 0.0033 nM.

Regarding `CCCc1cc(N2CC[C@H](NCC3CC3)C2)nc(Nc2ccc(F)c(C#N)c2)n1` [Example 376, (S)-5-{4-[3-(cyclopropylmethylamino)pyrrolidin-1-yl]-6-propylpyrimidin-2-ylamino}-2-fluorobenzonitrile], the response was half-maximal at 0.0037 nM (EC50). Take `CCCc1cc(N2CC[C@H](NCC3CC3)C2)nc(Nc2ccc(C)c(C#N)c2)n1` [Example 377, (S)-5-{4-[3-(cyclopropylmethylamino)pyrrolidin-1-yl]-6-propylpyrimidin-2-ylamino}-2-methylbenzonitrile]: the EC50 amounted to 0.0013 nM. `CCCc1cc(N2CC[C@H](NCC3CC3)C2)nc(Nc2cccc(SC)c2)n1` [Example 378] showed an EC50 of 0.015 nM.

As for `CCCc1cc(N2CC[C@H](NCC3CC3)C2)nc(Nc2cccc(C(F)(F)F)c2)n1` [Example 379], a half-maximal effect (EC50) was put at 0.0098 nM. The figure for `CCCc1cc(N2CC[C@H](NCC3CC3)C2)nc(Nc2cc(Cl)ccc2C)n1` [Example 380] is 0.009 nM; for `CCCc1cc(N2CC[C@H](NCC3CC3)C2)nc(Nc2ccc(C)c(Cl)c2)n1` [Example 381] it is 0.0043 nM.
